Experimental data: PubChem BioAssay (NCI)
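Test compounds were applied to cells in 96-well plates for 48 hours at 5 doses. GI50 marks 50% less growth. TGI: total growth inhibition.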

What was measured:
Assay in all cases: growth of human tumour cells (NCI), 48 h
A549 NSCLC = tested on: A549 NSCLC
CCRF-CEM leukemia = tested on: CCRF-CEM leukemia
DU-145 prostate = tested on: DU-145 prostate
IGROV1 ovarian = tested on: IGROV1 ovarian
M14 melanoma = tested on: M14 melanoma
MDA-MB-231 breast = tested on: MDA-MB-231 breast
NCI-H226 lung = tested on: NCI-H226 lung
NCI/ADR-RES ovarian = tested on: NCI/ADR-RES ovarian
OVCAR-8 ovarian = tested on: OVCAR-8 ovarian
RPMI-8226 leukemia = tested on: RPMI-8226 leukemia
SR leukemia = tested on: SR leukemia
UACC-62 melanoma = tested on: UACC-62 melanoma

| SMILES | TGI (A549 NSCLC) [µM] | TGI (CCRF-CEM leukemia) [µM] | TGI (DU-145 prostate) [µM] | TGI (IGROV1 ovarian) [µM] | TGI (M14 melanoma) [µM] | TGI (MDA-MB-231 breast) [µM] | TGI (NCI-H226 lung) [µM] | TGI (NCI/ADR-RES ovarian) [µM] | TGI (OVCAR-8 ovarian) [µM] | TGI (RPMI-8226 leukemia) [µM] | TGI (SR leukemia) [µM] | TGI (UACC-62 melanoma) [µM] | GI50 (DU-145 prostate) [µM] | GI50 (M14 melanoma) [µM] | GI50 (OVCAR-8 ovarian) [µM] |
| --- | --- | --- | --- | --- | --- | --- | --- | --- | --- | --- | --- | --- | --- | --- | --- |
| Oc1cccc2ccc(Br)nc12 | > 100 | > 100 | > 100 | > 100 | > 100 | > 100 | > 100 | > 100 | > 100 | > 100 | > 100 | > 100 |  |  |  |
| CC12CCC(=O)[C@@]1(C)CCCC2O (stereo not given in full) | > 100 | > 100 | > 100 | > 100 | > 100 | > 100 | > 100 | > 100 | > 100 | > 100 | > 100 | > 100 |  |  |  |
| COc1ccc(NC(/C(C(=O)C(=O)/C=C(\O)c2ccccc2)=C(\O)c2ccccc2)c2ccc(OC)cc2)cc1 (stereo not given) | > 100 | > 100 | > 100 | > 100 | > 100 | > 100 | > 100 | > 100 | > 100 | 69.1 | > 100 | > 100 |  |  |  |
| N#CC(C#N)=Cn1c(=S)[nH]c2ccc([N+](=O)[O-])cc21 | > 100 | > 100 | > 100 | > 100 | > 100 | > 100 | > 100 | > 100 | > 100 | > 100 | > 100 | > 100 |  |  |  |
| COC(=O)/C(C#N)=C/c1cc(C(C)(C)C)c(O)c(C(C)(C)C)c1 | > 100 | 9.69 | > 100 | > 100 | 13.6 | 4.95 | 9.6 | 9.65 | 33.6 | 3.54 | 11 | 15.1 |  |  |  |
| Cc1ccc(CN2CCN(Cc3ccc(C)o3)C(C)C2)o1 (stereo not given) | > 100 | > 100 | > 100 | > 100 | > 100 | > 100 | > 100 | > 100 | > 100 | > 100 | > 100 | > 100 |  |  |  |
| Cc1ccc(O)c(C2=NNC(c3cccc(Cl)c3)C2)c1 (stereo not given) | > 100 | > 100 | > 100 | 48.8 | > 100 | > 100 | > 100 | > 100 | > 100 | 88.3 | > 100 | > 100 |  |  |  |
| Nn1c(CCCCCCCCc2n[nH]c(=S)n2N)n[nH]c1=S | > 100 | > 100 | > 100 | > 100 | > 100 | > 100 | > 100 | > 100 | > 100 | > 100 | > 100 | > 100 |  |  |  |
| COc1cc([C@@H]2c3cc4c(cc3[C@@H](NC(=O)NO)[C@H]3COC(=O)[C@H]23)OCO4)cc(OC)c1O |  | > 100 | > 100 | > 100 | > 100 | > 100 |  | 93.1 | > 100 | > 100 | > 100 |  | 7.27 | 37 | 34.4 |
| CC(=O)N1N=C(c2ccc3ccccc3c2O)CC1c1ccc(N(C)C)cc1 (stereo not given) | > 100 | > 100 | > 100 | > 100 | > 100 | > 100 | > 100 | > 100 | > 100 | > 100 | > 100 | > 100 |  |  |  |
| Cc1cnc2[nH]c(-c3ccc(Cl)cc3)cc(=O)c2c1 | > 100 | > 100 | > 69.8 | > 100 | > 100 | > 19.9 | > 100 | > 26.3 | > 100 | > 60.3 | > 100 | > 100 |  |  |  |
| c1cc2c3ccsc3c3sccc3c2s1 | > 100 | > 100 | > 100 | > 100 | > 100 | > 100 | > 100 | > 100 | > 100 | > 100 | > 100 | > 100 |  |  |  |
| COc1ccc(NC(=O)NNS(=O)(=O)c2ccc(C)cc2)cc1 | > 100 | > 100 | > 100 | > 100 | > 100 | > 100 | > 100 | > 100 | > 100 | > 100 | > 100 | > 100 |  |  |  |
| CC[C@]1(Cc2ccc(OC)c(OC)c2)C=[N+]([O-])O[C@H](OCc2ccccc2)[C@@H]1OC(C)=O | > 100 | 55.6 | 93.5 | > 100 | > 100 | > 100 | 53.8 | > 100 | > 100 | 57.9 | 48.2 | > 100 |  |  |  |
| COC1C(=O)N(SC)C1c1ccccc1Cl (stereo not given) | > 100 | 35.1 | > 100 | 38.6 | 94.2 | 87.3 |  | > 100 | 39.4 | 44.5 | 42.4 | > 100 |  |  |  |
| CCOC(=O)c1csc(-c2cn(C)c3c2C(=O)C(OC)=CC3=O)n1 | 97.1 | > 100 | 91.3 | > 100 | 63.3 | 57.8 | > 100 | > 100 | > 100 | > 80.1 | > 100 | > 59 |  |  |  |
| Cc1ccc(S(=O)(=O)NNC(=O)Nc2ccc([N+](=O)[O-])cc2)cc1 | > 100 | > 100 | > 100 | > 100 | > 100 | > 100 | > 100 | > 100 | 42.3 | 78.5 | > 100 | 98 |  |  |  |
| COc1cc(C(=O)OC2CC34CCNC35CC(OC5(OC)C2O)c2cc3c(cc24)OCO3)ccc1O (stereo not given) | > 100 | > 100 | > 100 | > 100 | > 100 | > 100 | > 100 | > 100 | > 100 | > 100 | > 100 | > 100 |  |  |  |
